Source: patent publication US11117915B2, “Antibacterial aminoglycoside analogs” (Cipla USA, Inc., priority 2007, dated 2021)
Values after ≈ are worked out from the molar mass of the structure shown. Like-named read-outs stand apart in the source and are kept apart here.

Tests used:
[1] = tested on: E. coli ATCC 25922; experiment: MIC assay, CLSI broth microdilution, E. coli ATCC 25922 (AECO001); assay type: cell-based; settings: for MIC: Escherichia coli
Procedure, shortened: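 CLSI broth microdilution (M7-A7): two-fold compound dilutions in Mueller Hinton Broth, inoculum 5×10^5 CFU/mL final. Plates incubated 20 hours at 35° C. in ambient air; MIC read as lowest inhibitory concentration.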

[2] = tested on: P. aeruginosa ATCC 27853; experiment: MIC assay, CLSI broth microdilution, P. aeruginosa ATCC 27853 (APAE001); assay type: cell-based; settings: for MIC: Pseudomonas aeruginosa
Procedure, shortened: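 CLSI M7-A7 broth microdilution; 2-fold serial dilutions in Mueller Hinton Broth, 1:1 with inoculum; final 5×10^5 CFU/mL; 35° C., 20 h, ambient air. QC strains E. coli ATCC 25922, P. aeruginosa ATCC 27853, S. aureus ATCC 29213.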

[3] = tested on: E. coli ATCC 25922; experiment: murine septicemia model of infection, E. coli; assay type: in vivo; settings: mice inoculated IP, single SC or IV dose 1 hour after challenge, mortality 7 days; ED50 values are mg/kg
Description: (§1) Two models were run on each compound, using E. coli and P. aeruginosa QC bacterial strains. Both studies employed the same design. […] At 1 hour after bacterial challenge, the mice received a single SC or IV […] dose of vehicle or test substance to assess in vivo anti-infective activity. Mortality was recorded once daily for 7 days after bacterial inoculation.

[4] = tested on: P. aeruginosa ATCC 27853; experiment: murine septicemia model of infection, P. aeruginosa; assay type: in vivo; settings: mice inoculated IP, single SC or IV dose 1 hour after challenge, mortality 7 days; ED50 values are mg/kg
Description: as §1

[5] = ATCC27853, Table 2, read-out: MIC P. aeruginosa
[6] = AECO001 is ATCC25922, 35° C., 20 hours, read-out: MIC AECO001
[7] = APAE001 is ATCC27853, 35° C., 20 hours, read-out: MIC APAE001
[8] = ATCC25922, 20 h, read-out: MIC AECO001
[9] = ATCC27853, 20 h, read-out: MIC APAE001

Compound | MIC [2, 5] [µg/mL] | ED50/MIC E. Coli [3] | ED50/MIC P. aeruginosa [4] | MIC [1, 6] [µg/mL] | MIC [2, 7] [µg/mL] | MIC [1, 8] [µg/mL] | MIC [2, 9] [µg/mL] | other results
NCC[C@H](O)C(=O)N[C@@H]1C[C@H](N)[C@@H](O[C@H]2O[C@H](CN)[C@@H](O)[C@H](O)[C@H]2O)[C@H](O)[C@H]1O[C@H]1O[C@H](CO)[C@@H](O)[C@H](N)[C@H]1O [Amikacin, amikacin, reference compound] | 1 to 16 (≈ 1.71 to 27.3 µM) | 1.5 | 13 | – | – | – | – | MIC ([1]; ATCC25922, Table 2, read-out: MIC E. coli): 1 to 16 µg/mL (≈ 1.71 to 27.3 µM)
CN[C@@H]1[C@@H](O)[C@@H](O[C@@H]2[C@@H](O)[C@H](O[C@H]3OC(CNCCO)=CC[C@H]3N)[C@@H](N)C[C@H]2NC(=O)[C@@H](O)CCN)OC[C@]1(C)O [Example 1, 6′-(2-Hydroxy-ethyl)-1-(4-amino-2(S)-hydroxy-butyryl)-sisomicin] | 1 to 16 (≈ 1.69 to 27 µM) | <2 | 4 | < 1 | 1 to 16 (≈ 1.69 to 27 µM) | – | – | –
CN[C@@H]1[C@@H](O)[C@@H](O[C@@H]2[C@@H](O)[C@H](O[C@H]3OC(CNCC4CCNCC4)=CC[C@H]3N)[C@@H](N)C[C@H]2NC(=O)[C@@H](O)CN)OC[C@]1(C)O [Example 15, 6′-(Methyl-piperidin-4-yl)-1-(3-amino-2(S)-hydroxy-propionyl)-sisomicin] | 1 to 16 (≈ 1.58 to 25.3 µM) | – | 1 | < 1 | 1 to 16 (≈ 1.58 to 25.3 µM) | – | – | –
CN[C@@H]1[C@@H](O)[C@@H](O[C@@H]2[C@@H](O)[C@H](O[C@H]3OC(CNCCO)=CC[C@H]3N)[C@@H](N)C[C@H]2NC(=O)[C@@H](O)CN)OC[C@]1(C)O [Example 16, 6′-(2-Hydroxy-ethyl)-1-(3-amino-2(S)-hydroxy-propionyl)-sisomicin] | 1 to 16 (≈ 1.73 to 27.6 µM) | 1 | 3 | < 1 | 1 to 16 (≈ 1.73 to 27.6 µM) | – | – | –
CN[C@@H]1[C@@H](O)[C@@H](O[C@@H]2[C@@H](O)[C@H](O[C@H]3OC(CNCCCN)=CC[C@H]3N)[C@@H](N)C[C@H]2NC(=O)[C@@H](O)CN)OC[C@]1(C)O [Example 17, 6′-(3-Amino-propyl)-1-(3-amino-2(S)-hydroxy-propionyl)-sisomicin] | 1 to 16 (≈ 1.69 to 27 µM) | 1 | 5 | < 1 | 1 to 16 (≈ 1.69 to 27 µM) | – | – | –
CN[C@@H]1[C@@H](O)[C@@H](O[C@@H]2[C@@H](O)[C@H](O[C@H]3OC(CNCC(O)CN)=CC[C@H]3N)[C@@H](N)C[C@H]2NC(=O)[C@@H](O)CN)OC[C@]1(C)O (stereo partly drawn) [Example 22, 6′-(3-Amino-2-hydroxy-propyl)-1-(3-amino-2(S)-hydroxy-propionyl)-sisomicin] | 1 to 16 (≈ 1.65 to 26.3 µM) | 1 | 8 | 1 to 16 (≈ 1.65 to 26.3 µM) | 1 to 16 (≈ 1.65 to 26.3 µM) | – | – | –
CN[C@@H]1[C@@H](O)[C@@H](O[C@@H]2[C@@H](O)[C@H](O[C@H]3OC(CNCCCN)=CC[C@H]3N)[C@@H](N)C[C@H]2NC(=O)C2(O)CNC2)OC[C@]1(C)O [Example 57] | < 1 | 2 | 14 | < 1 | < 1 | – | – | –
CN[C@@H]1[C@@H](O)[C@@H](O[C@@H]2[C@@H](O)[C@H](O[C@H]3OC(CN)=CC[C@H]3NC3CNC3)[C@@H](N)C[C@H]2NC(=O)[C@@H](O)CCN)OC[C@]1(C)O [Example 96, 2′-(Azetidin-3-yl)-1-(4-amino-2(S)-hydroxy-butyryl)-sisomicin] | 1 to 16 (≈ 1.66 to 26.5 µM) | – | 3 | < 1 | 1 to 16 (≈ 1.66 to 26.5 µM) | – | – | –
CN[C@@H]1[C@@H](O)[C@@H](O[C@@H]2[C@@H](O)[C@H](O[C@H]3OC(CN)=CC[C@H]3NCCO)[C@@H](N)C[C@H]2NC(=O)[C@@H](O)CCN)OC[C@]1(C)O [Example 98, 2′-(2-Hydroxy-ethyl)-1-(4-amino-2(S)-hydroxy-butyryl)-sisomicin] | – | – | – | – | – | 1 to 16 (≈ 1.69 to 27 µM) | 1 to 16 (≈ 1.69 to 27 µM) | –
CN[C@@H]1[C@@H](O)[C@@H](O[C@@H]2[C@@H](O)[C@H](O[C@H]3OC(CN)=CC[C@H]3NC(=O)C(N)CCCN)[C@@H](N)C[C@H]2NC(=O)[C@@H](O)CCN)OC[C@]1(C)O (stereo partly drawn) [Example 99, 2′-(2,5-Diamino-pentoyl)-1-(4-amino-2(S)-hydroxy-butyryl)-sisomicin] | – | – | – | – | – | 1 to 16 (≈ 1.51 to 24.1 µM) | 1 to 16 (≈ 1.51 to 24.1 µM) | –
CN[C@@H]1[C@@H](O)[C@@H](O[C@@H]2[C@@H](O)[C@H](O[C@H]3OC(CN)=CC[C@H]3NCC(O)CO)[C@@H](N)C[C@H]2NC(=O)[C@@H](O)CCN)OC[C@]1(C)O (stereo partly drawn) [Example 100, 2′-(2-Hydroxy-propanol)-1-(4-amino-2(S)-hydroxy-butyryl)-sisomicin] | – | – | – | – | – | 1 to 16 (≈ 1.61 to 25.7 µM) | > 16 | –
CN[C@@H]1[C@@H](O)[C@@H](O[C@@H]2[C@@H](O)[C@H](O[C@H]3OC(CN)=CC[C@H]3NCC(O)CN)[C@@H](N)C[C@H]2NC(=O)[C@@H](O)CCN)OC[C@]1(C)O (stereo partly drawn) [Example 101, 2′-(2-Hydroxy-3-amino-propyl)-1-(4-amino-2(S)-hydroxy-butyryl)-sisomicin] | – | – | – | – | – | < 1 | 1 to 16 (≈ 1.61 to 25.7 µM) | –
CN[C@@H]1[C@@H](O)[C@@H](O[C@@H]2[C@@H](O)[C@H](O[C@H]3OC(CN)=CC[C@H]3NCCCCN)[C@@H](N)C[C@H]2NC(=O)[C@@H](O)CCN)OC[C@]1(C)O [Example 102, 2′-(4-Amino-butyl)-1-(4-amino-2(S)-hydroxy-butyryl)-sisomicin] | – | – | – | – | – | < 1 | 1 to 16 (≈ 1.61 to 25.8 µM) | –
CN[C@@H]1[C@@H](O)[C@@H](O[C@@H]2[C@@H](O)[C@H](O[C@H]3OC(CN)=CC[C@H]3NC(=N)N)[C@@H](N)C[C@H]2NC(=O)[C@@H](O)CCN)OC[C@]1(C)O [Example 103, 2′-Guanidinium-1-(4-amino-2(S)-hydroxy-butyryl)-sisomicin] | < 1 | 2 | 6 | < 1 | < 1 | – | – | –
CN[C@@H]1[C@@H](O)[C@@H](O[C@@H]2[C@@H](O)[C@H](O[C@H]3OC(CN)=CC[C@H]3NC[C@H]3C[C@H](N)C3)[C@@H](N)C[C@H]2NC(=O)[C@@H](O)CCN)OC[C@]1(C)O [Example 104, 2′-(Methyl-trans-3-amino-cyclobutyl)-1-(4-amino-2(S)-hydroxy-butyryl)-sisomicin] | – | – | – | – | – | < 1 | 1 to 16 (≈ 1.58 to 25.3 µM) | –
CN[C@@H]1[C@@H](O)[C@@H](O[C@@H]2[C@@H](O)[C@H](O[C@H]3OC(CNC(=N)N)=CC[C@H]3NC(=N)N)[C@@H](N)C[C@H]2N)OC[C@]1(C)O [Example 105, 6′,2′-bis-Guanidinium-sisomicin] | – | – | – | – | – | > 16 | > 16 | –
CN[C@@H]1[C@@H](O)[C@@H](O[C@@H]2[C@@H](O)[C@H](O[C@H]3OC(CNCCO)=CC[C@H]3NC(=N)N)[C@@H](N)C[C@H]2N)OC[C@]1(C)O [Example 106, 6′-(2-Hydroxy-ethyl)-2′-guanidinium-sisomicin] | – | – | – | – | – | < 1 | 1 to 16 (≈ 1.87 to 30 µM) | –
CN[C@@H]1[C@@H](O)[C@@H](O[C@@H]2[C@@H](O)[C@H](O[C@H]3OC(CNC[C@H]4C[C@H](N)C4)=CC[C@H]3NC(=N)N)[C@@H](N)C[C@H]2N)OC[C@]1(C)O [Example 107, 6′-(Methyl-trans-3-amino-cyclobutyl)-2′-guanidinium-sisomicin] | – | – | – | – | – | 1 to 16 (≈ 1.75 to 27.9 µM) | < 1 | –
CNCC1=CC[C@@H](NC(=N)N)[C@@H](O[C@H]2[C@H](O)[C@@H](O[C@H]3OC[C@](C)(O)[C@H](NC)[C@H]3O)[C@H](N)C[C@@H]2N)O1 [Example 108, 6′-Methyl-2′-guanidinium-sisomicin] | – | – | – | – | – | < 1 | 1 to 16 (≈ 1.99 to 31.8 µM) | –
gentamicin [reference compound] | – | 2.4 | 12 | – | – | – | – | MIC E. coli ([1]; Table 2): A (MIC's of 1.0 μg/mL or less = A); MIC P. aeruginosa ([2]; Table 2): A (MIC's of 1.0 μg/mL or less = A)
